One series concerns the target BRD4(1) (Homo sapiens (Human), UniProt O60885). In words: AlphaScreen acetyl-histone binding assay, BRD4(1). The protocol: (§1) The IC50 of the compounds were determined by ALPHASCREENING assays for BRD4 and BRDT proteins. NMC797 cell line is a BRD4 dependent NUT midline carcinoma line.
(§2) Acetyl-Histone Binding Assay. Assays were performed as described previously with minor modifications from the manufacturer's protocol (PerkinElmer, USA). All reagents were diluted in 50 mM HEPES, 100 mM NaCl, 0.1% BSA, pH 7.4 supplemented with 0.05% CHAPS and allowed to equilibrate to room temperature prior to addition to plates. A 24-point 1:2 serial dilution of the ligands was prepared over the range of 150-0 μM and 4 μl transferred to low-volume 384-well plates (ProxiPlate™-384 Plus, PerkinElmer, USA), followed by 4 μl of HIS-tagged protein (BRD4/1, 250 nM, BRD4/2 and CREBBP, 2000 nM). […] Plates were sealed and incubated for a further 30 minutes, before the addition of 4 μl of streptavidin-coated donor beads (25 μg/ml) and 4 μl nickel chelate acceptor beads (25 μg/ml) under low light conditions. Plates were foil-sealed to protect from light, incubated at room temperature for 60 minutes and read on a PHERAstar FS plate reader (BMG Labtech, Germany) using an AlphaScreen 680 excitation/570 emission filter set. IC50 values were calculated in Prism 5 (GraphPad Software, USA) after normalization against corresponding DMSO controls and are given as the final concentration of compound in the 20 μl reaction volume.
(In general: Bead proximity is the source of the signal in Alpha formats.)

Series [1] has as its system NMC797 cell line (BRD4 dependent NUT midline carcinoma line). In words: Cell proliferation assay (ATP content), NMC797. It is filed as cell-based. To be noted: NMC797 cells, 48 h incubation. The protocol:
as §1
Cell Proliferation Assay. Cells were seeded into white, 384-well microtiter plates (Nunc) at 500 cells per well in a total volume of 50 μL media. The 797, TT, and TE10 cells were grown in DMEM containing 1% penicillin/streptomycin and 10% FBS. The Per403 cells were grown in DMEM containing 1% penicillin/streptomycin and 20% FBS. Compounds were delivered to microtiter assay plates by robotic pin transfer (PerkinElmer JANUS equipped with a V&P Scientific 100 nL pin tool). Following a 48 h incubation at 37° C., cells were lysed and wells were assessed for total ATP content using a commercial proliferation assay (Cell TITERGLO; Promega). Replicate measurements were analyzed with respect to dose and estimates of IC50 were calculated by logistic regression ([…] PRISM).

The next series addresses BRDT(1) (Homo sapiens (Human), UniProt Q58F21). Nature of the series: AlphaScreen acetyl-histone binding assay, BRDT(1). The protocol:
as §1, §2

Series [2] can be described thus: Pharmacokinetics in male CD1 mice, IV administration. As to conditions: IV 5 mg/kg, whole blood; for AUC(0-inf) / AUC(0-t) / MRT inf / clearance / half-life / Vd: mouse; for half-life: read-out: Terminal t1/2 (converted); for Vd: read-out: VSS. It is filed as in vivo, mouse. The procedure: (§3) Pharmacokinetic parameters were determined by administration of a candidate bromodomain inhibitor to male CD1 mice. Intravenous doses were delivered at 5 mg/kg, and oral doses at 10 mg/kg (N=3). […] The compound concentration in mouse blood was monitored over 24 hour time period to check the compound concentration in blood at 5 min, […], 1 h, 2 h, 6 h, 12, 24 h via a series bleeding.

The nature of series [3]: Pharmacokinetics in male CD1 mice, oral administration. As to conditions: for half-life: read-out: Terminal t1/2 (converted); for F: oral 10 mg/kg vs IV 5 mg/kg. It is filed as in vivo, mouse. The procedure: as §3
Setting [4] is: mouse, oral 10 mg/kg, whole blood.
Setting [5] is: mouse, oral 10 mg/kg, whole blood, read-out: Cmax.
Setting [6] is: mouse, oral 10 mg/kg, whole blood, read-out: Tmax.

Like-named read-outs stand apart in the source and are kept apart here.

Consider `Cc1sc2c(c1C)C(c1ccc(C#N)cc1)=N[C@@H](CC(=O)NCC(F)(F)F)c1nnc(C)n1-2` [Compound 111], for which the IC50 (as a rule, the point on the concentration scale where inhibition reaches its midpoint) at BRD4(1) amounted to 117 nM; in series [1] (NMC-797), 125 nM.
As for `Cc1c(CC#N)sc2c1C(c1ccc(Cl)cc1)=N[C@@H](CC(=O)N1CCOCC1)c1nnc(C)n1-2` [Compound 210], the IC50 was 1420 nM on BRDT(1), 466 nM on BRD4(1) and 118 nM in series [1] (NMC-797).
On to `Cc1sc2c(c1C)C(c1ccc(C#N)cc1)=N[C@@H](CC(=O)NCC(F)F)c1nnc(C)n1-2` [Compound 109], for which the IC50 on BRDT(1) was 142 nM. Besides, on BRD4(1), the IC50 amounted to 37 nM. The midpoint of inhibition in series [1] (NMC-797), the IC50, lay at 70 nM. In addition, in series [2], the total exposure AUC(0-inf) (usually the area under the concentration-time curve extrapolated to infinity) was found to be 3510 ng·h/mL; the AUC(0-t) (commonly exposure summed from dosing to a finite time, without extrapolation to infinity) stood at 3500 ng·h/mL; the MRT inf (usually the average time that molecules of a dose stay in the body) was 49.7 min; the clearance (commonly a measure of how efficiently the substance is removed, as volume per time) was 23.7 mL/min/kg. Moreover, in series [2], the half-life was 66.6 min and the Vd was found to be 1.18 L/kg. Besides, in series [3] (setting [4]), the AUC(0-inf) was found to be 3780 ng·h/mL, the AUC(0-t) worked out at 3630 ng·h/mL and the half-life was 101 min. Further, in series [3] (setting [5]), the Cmax (commonly the highest concentration seen after dosing) came to 1210 ng/mL. Moreover, the Tmax (commonly the time at which the peak concentration occurs) in series [3] (setting [6]) was 40 min. For the same compound, the F in series [3] came to 53.8%.
As for `CCNC(=O)C[C@@H]1N=C(c2ccc(C#N)cc2)c2c(sc(C)c2C)-n2c(C)nnc21` [Compound 102], the results for the IC50 (at BRDT(1); at BRD4(1); in series [1] (NMC-797)) were 458 nM, 120 nM and 275 nM, respectively.
The like results for `Cc1c(CC#N)sc2c1C(c1ccc(Cl)cc1)=N[C@@H](CC(=O)NC[C@@H](C)O)c1nnc(C)n1-2` [Compound 208] were, in that order, 1200 nM, 415 nM and 6100 nM.
Taken in the same sequence, the figures for `Cc1c(CC#N)sc2c1C(c1ccc(Cl)cc1)=N[C@@H](CC(N)=O)c1nnc(C)n1-2` [Compound 205] were 612 nM, 206 nM and 903 nM.
Taken in the same sequence, the figures for `Cc1sc2c(c1C)C(c1ccc(C#N)cc1)=N[C@@H](CC(=O)N1CCOCC1)c1nnc(C)n1-2` [Compound 110] were 197 nM, 89 nM and 116 nM.
For the compound `Cc1c(CC#N)sc2c1C(c1ccc(Cl)cc1)=N[C@@H](CC(=O)NCCCN1CCN(C)CC1)c1nnc(C)n1-2` [Compound 203], the IC50 at BRD4(1) was determined as 134 nM; in series [1] (NMC-797) it was 6790 nM.
For the compound `Cc1sc2c(c1C)C(c1ccc(C#N)cc1)=N[C@@H](CC(=O)Nc1ccc(O)cc1)c1nnc(C)n1-2` [Compound 101], the values for the IC50 (at BRDT(1); on BRD4(1); in series [1] (NMC-797)) were 120 nM, 79 nM and 133 nM, respectively.
With `Cc1sc2c(c1C)C(c1ccc(C#N)cc1)=N[C@@H](CC(=O)NC[C@@H](C)O)c1nnc(C)n1-2` [Compound 108], the IC50 on BRDT(1) came out at 133 nM; on BRD4(1) it was 52 nM; in series [1] (NMC-797) it was 258 nM.
The like results for `Cc1sc2c(c1C)C(c1ccc(C#N)cc1)=N[C@@H](CC(=O)NCCN1CCOCC1)c1nnc(C)n1-2` [Compound 104] were, in that order, 216 nM, 53 nM and 183 nM.
In turn, `COC(=O)C[C@@H]1N=C(c2ccc(Cl)cc2)c2c(sc(CC#N)c2C)-n2c(C)nnc21` [Compound 200] registered an IC50 at BRDT(1) of 132 nM. At BRD4(1), this compound gave an IC50 of 48 nM. For the same compound, in series [1] (NMC-797), the IC50 came out at 52 nM. In series [2], this compound gave an AUC(0-inf) of 4050 ng·h/mL, an AUC(0-t) of 4000 ng·h/mL, an MRT inf of 76.8 min and a clearance of 20.8 mL/min/kg. Further, in series [2], the half-life is 82.8 min and the Vd was 1.57 L/kg. Moreover, in series [3] (setting [4]), the AUC(0-inf) was found to be 6040 ng·h/mL, the AUC(0-t) was determined as 5520 ng·h/mL and the half-life was 118 min. In addition, in series [3] (setting [5]), the Cmax amounted to 1500 ng/mL. Further, the Tmax in series [3] (setting [6]) is 30 min. Besides, the F in series [3] is recorded as 72.4%.
Take `Cc1sc2c(c1C)C(c1ccc(C#N)cc1)=N[C@@H](CC(=O)NC[C@H](C)O)c1nnc(C)n1-2` [Compound 107]: the IC50 on BRDT(1) was 187 nM. This compound gave an IC50 on BRD4(1) of 61 nM. In series [1] (NMC-797), this compound came in with an IC50 of 107 nM. In series [2], this compound had an AUC(0-inf) of 2920 ng·h/mL, an AUC(0-t) of 2920 ng·h/mL, an MRT inf of 20.2 min and a clearance of 29.3 mL/min/kg. Also, in series [2], the half-life is 24.7 min and the Vd turned out to be 0.583 L/kg. Further, in series [3] (setting [4]), the total exposure AUC(0-inf) worked out at 532 ng·h/mL, the AUC(0-t) worked out at 512 ng·h/mL and the half-life was 97.2 min. In addition, the Cmax in series [3] (setting [5]) came to 319 ng/mL. For the same compound, in series [3] (setting [6]), the Tmax worked out at 30 min. Further, the F in series [3] is 9.10%.
Take `Cc1c(CC#N)sc2c1C(c1ccc(Cl)cc1)=N[C@@H](CC(=O)NC[C@H](C)O)c1nnc(C)n1-2` [Compound 207]: the IC50 at BRD4(1) was determined as 623 nM; in series [1] (NMC-797) it was 4250 nM.
Compound `Cc1sc2c(c1C)C(c1ccc(Cl)cc1)=N[C@@H](CC(=O)OC(C)(C)C)c1nnc(C)n1-2` [JQ1, reference compound] gave an IC50 in series [1] of 21 nM. In series [2], this compound yielded an AUCINF of 2130 ng·h/mL, an AUClast of 2130 ng·h/mL, a CL of 39.2 mL/min/kg and an MRTINF of 51.7 min. Besides, in series [3] (oral 10 mg/kg, whole blood), the AUCINF was determined as 2090 ng·h/mL, the AUClast came out at 2040 ng·h/mL, the Cmax was found to be 1180 ng/mL and the Tmax turned out to be 15 min.
Turning to `COC(=O)C[C@@H]1N=C(c2ccc(Cl)cc2)c2c(sc(CNS(=O)(=O)c3ccccc3)c2C)-n2c(C)nnc21` [Compound 300], the IC50 at BRDT(1) is 60 nM; at BRD4(1) it was 16 nM; in series [1] (NMC-797), 61 nM.
Regarding `Cc1sc2c(c1C)C(c1ccc(C#N)cc1)=N[C@@H](CC(=O)NCCCN1CCN(C)CC1)c1nnc(C)n1-2` [Compound 103], the IC50 on BRDT(1) amounted to 120 nM; on BRD4(1), 50 nM; in series [1] (NMC-797), 333 nM.
The compound `Cc1sc2c(c1C)C(c1ccc(C#N)cc1)=N[C@@H](CC(=O)OC(C)(C)C)c1nnc(C)n1-2` [Compound 100] came in with a concentration for half-maximal inhibition (IC50) in series [1] (NMC-797) of 185 nM.
For `Cc1sc2c(c1C)C(c1ccc(C#N)cc1)=N[C@@H](CC(N)=O)c1nnc(C)n1-2` [Compound 105], the IC50 on BRDT(1) came out at 565 nM; at BRD4(1), 174 nM; in series [1] (NMC-797) it was 366 nM.
`CCNC(=O)C[C@@H]1N=C(c2ccc(Cl)cc2)c2c(sc(CC#N)c2C)-n2c(C)nnc21` [Compound 202]: the figures for the IC50 (on BRD4(1); in series [1] (NMC-797)) were 310 nM and 1130 nM, respectively.
For the compound `Cc1sc2c(c1C)C(c1ccc(C#N)cc1)=N[C@@H](CC(=O)NCCO)c1nnc(C)n1-2` [Compound 106], the IC50 at BRDT(1) stood at 105 nM; on BRD4(1), 33 nM; in series [1] (NMC-797), 328 nM.
With `Cc1c(CC#N)sc2c1C(c1ccc(Cl)cc1)=N[C@@H](CC(=O)Nc1ccc(O)cc1)c1nnc(C)n1-2` [Compound 201], the IC50 at BRD4(1) stood at 175 nM; in series [1] (NMC-797), 1900 nM.
The like results for `Cc1c(CC#N)sc2c1C(c1ccc(Cl)cc1)=N[C@@H](CC(=O)NCCN1CCOCC1)c1nnc(C)n1-2` [Compound 204] were, in that order, 300 nM and 3460 nM.
The like results for `Cc1c(CC#N)sc2c1C(c1ccc(Cl)cc1)=N[C@@H](CC(=O)NCC(F)F)c1nnc(C)n1-2` [Compound 209] were, in that order, 386 nM and 912 nM.
Turning to `Cc1c(CC#N)sc2c1C(c1ccc(Cl)cc1)=N[C@@H](CC(=O)NCCO)c1nnc(C)n1-2` [Compound 206], the values for the IC50 (on BRDT(1); at BRD4(1); in series [1] (NMC-797)) were 642 nM, 197 nM and 9630 nM, respectively.

The values are drawn from patent US11306105B2, “Cyano thienotriazolodiazepines and uses thereof” (Dana-Farber Cancer Institute, Inc., priority 2015, dated 2022).
